Measured values taken from article PMC9313321 (Biomedicines, 2022).

Key:
Aβ42 self-aggregation = target: T1, Aβ42 self-aggregation (Homo sapiens, UniProt P05067); assay: biochemical; type: biochemical; conditions: read-out: Aβ42 Self-Aggreg. Inhib
T1 construct: Beta-amyloid protein, fragment 1-42; purchased GeneCust
Experimental: (§1) The inhibition of Aβ42 aggregation and Cu(II)-induced Aβ42 aggregation, carried out by the RIV–BIM hybrids, was studied using a reported method based on the fluorescence emission of thioflavin T [52, 53].
(§2) Solutions of phosphate buffer 0.215 M at pH = 8.00, Na2CO3 300 μM in distilled water, NaOH 250 mM in distilled water, glycine-NaOH 50 mM buffer at pH = 8.50 and CuCl2 240 μM in phosphate buffer were prepared. Stock solutions of […] of the RIV–BIM compounds were prepared in MeOH (with 20% DMSO). Working solutions of 240 μM of the RIV–BIM hybrids were prepared by the proper dilution of their stock solutions with phosphate buffer. A working solution of glycine-NaOH 50 mM buffer at pH = 8.50 containing 5 μM of thioflavin T (ThT) was prepared daily. Aβ42 (GeneCust) was pre-treated with 1,1,1,3,3,3-hexafluoro-2-propanol (HFIP) to obtain a solution of 0.149 mM by brief sonication and vortexing, which was kept covered overnight at room temperature. From the Aβ42 solution, aliquots of 250 μL were placed into Eppendorf tubes under ice and set to evaporate inside a hood at room temperature overnight. When the contents of the Eppendorf tubes were dried, the Aβ42 aliquots were stored at −20 °C until needed. To obtain the Aβ42 working solution, the Aβ42 aliquots were dissolved with a freshly prepared mixture of 69.5 μL of CH3CN/Na2CO3 (300 μM)/NaOH (250 mM) (48.3/48.3/3.4, v/v/v) by brief sonication and vortexing to obtain an Aβ42 solution of 531.24 μM. To this solution, 392.5 μL of phosphate buffer was added, achieving an Aβ42 working solution of 80 μM. To prepare the incubations, three replicates of Aβ42 alone (30 μL Aβ42 80 μM + 30 μL phosphate buffer), Aβ42 with RIV–BIM (30 μL Aβ42 80 μM + 10 μL RIV–BIM 240 μM + 20 μL phosphate buffer), Aβ42 with copper (30 μL Aβ42 80 μM + 10 μL CuCl2 240 μM + 20 μL phosphate buffer) and Aβ42 with copper and RIV–BIM (30 μL Aβ42 80 μM + 10 μL CuCl2 240 μM + 10 μL RIV–BIM 240 μM + 10 μL phosphate buffer) were placed in Eppendorfs. To obtain the blank solutions, a similar number of Eppendorfs, replacing Aβ42 with phosphate buffer, were prepared. Incubations were performed in a water bath at 37 °C with agitation for 24 h. Afterwards, 180 μL of glycine-NaOH 50 mM buffer at pH = 8.50 containing 5 μM of ThT was added to each Eppendorf and then they were vortexed. Finally, 200 μL of solution from each Eppendorf was placed in the wells of a microplate and fluorescence measurements were monitored using a Spectramax Gemini EM (Molecular Devices) fluorimeter with an excitation wavelength of 446 nm and an emission wavelength of 485 nm. Blank signals were subtracted from the corresponding samples. The fluorescence intensity of the Aβ42 + RIV–BIM solution was compared to that of the Aβ42 solution to obtain the inhibition of Aβ42 self-aggregation for each compound. The fluorescence intensity of the Aβ42 + Cu(II) + RIV–BIM solution was compared to that of the Aβ42 + Cu(II) solution to obtain the inhibition of the Cu(II)-induced Aβ42 aggregation for each hybrid.
(§3) The anti-amyloidogenic capacity of the compounds was assessed in vitro using the thioflavin T (ThT) method. To record fluorescence emission, excitation (446 nm) and emission (485 nm) wavelengths were used. When ThT binds to amyloid fibrils, an increase in absorbance and emission of this dye occurs with concomitant red shifts of the respective spectra. The percent of inhibition of Aβ42 aggregation is shown in Table 1, and the assays were performed in the presence of 20 μM of inhibitor. These concentration conditions were used to overcome solubility problems of some compounds in the aqueous phosphate buffer working medium. […]. […]

[1] = target: T2, Cu(II)-induced Aβ42 aggregation (Homo sapiens, UniProt P05067); assay: Inhibition of Cu(II)-induced Aβ42 aggregation (thioflavin T fluorescence); type: biochemical; conditions: read-out: Aβ42 Cu-Ind. Aggreg. Inhib
T2 construct: Beta-amyloid protein, fragment 1-42; purchased GeneCust
T2 sequence (P05067 672-713 limits assumed): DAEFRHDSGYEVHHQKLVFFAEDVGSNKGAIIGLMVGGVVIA
Experimental: as §1, §2, §3

Aβ = system: Aβ; set-up: method as in PMID 32781220; conditions: 50 μM concentration; cited from earlier work
[2] = Radical scavenging activity (DPPH method); conditions: read-out: Antioxid. EC50, 30 min, absorbance 517 nm
Experimental: To determine the radical scavenging activity (antioxidant activity) of the novel RIV–BIM hybrids, the DPPH method was performed as previously described in the literature [49]. Working solutions of 20 mg of the ligands were prepared daily in 10 mL of MeOH (with a 10% of DMSO). A working solution of 2 mg DPPH in 100 mL MeOH was prepared daily, and its absorbance was checked to be between 0.75 and 1.00 (a.u.). […] Each one of the calibrate points was kept for 30 min under darkness to allow the ligands to exert their antioxidant effects. After 30 min, an auto-zero was performed with MeOH in both sample and reference cells, using a UV–Vis spectrophotometer. […] The antioxidant activity (%AA) for each point was calculated using the following equation: %AA=ADPPH−Aligand/ADPPH×100
The radical scavenging activity of the RIV–BIM compounds was determined by a spectrophotometric method involving the 2,2-diphenyl-1-picrylhydrazyl (DPPH) free radical [35, 64].

T1 sequence (P05067 672-713 limits assumed): as above

| SMILES | inhibition at 20 µM (Aβ42 self-aggregation) [%] | inhibition at 20 µM [1] [%] | Aβ inhibition (Aβ) [%] | EC50 [2] [µM] |
| --- | --- | --- | --- | --- |
| COc1cc(/C=C/C(=O)CC(=O)/C=C/c2ccc(O)c(OC)c2)ccc1O [Curcumin, reference compound] | 65.7 | 62.7 | 62 | – |
| Cc1c(O)c(=O)ccn1C [DMHP, reference compound] | – | – | – | 157 ± 8 |
| Nc1c2c(nc3ccccc13)CCCC2 [Tacrine, reference compound] | 28.1 | – | – | – |
